From PubChem BioAssay AID2060333 (Molecular Pharmacology Branch, DTP, NCI, 2025)
pIC50: −log10 of the molar value. Where “and” joins values, the source holds several entries; their conditions need not be identical. Identical values can stand only once.

System: 845751-090-R-J2-PDC tumor spheroid viability
Assay: Anticancer human tumor 845751-090-R-J2-PDC patient-derived head and neck squamous carcinoma cell line growth inhibition [IpAb]
Conditions: spheroids with HUVEC and MSC; for viability, T/C: stronger effect = lower value
From the text: Combinatorial screen of targeted agents with ipatasertib and abemaciclib in multi-cell type tumor spheroids
A high-throughput screen of multi-cell type tumor spheroids was designed to identify active combinations of targeted small molecules and ipatasertib or abemaciclib. Complex spheroids include a stromal component modeled by human endothelial cells (HUVEC) and fibroblasts modeled by human mesenchymal stem cells (MSCs). The concentration ranges selected for each drug and investigational agent were based upon clinically achievable concentrations if the clinical Cmax of the agent was known.
Compounds. The drugs and investigational agents: ipatasertib (NSC767898), abemaciclib(NSC768073), selumetinib (NSC741078), trametinib (758246), adavosertib (NSC754352), everolimus (NSC733504), sapanisertib (NSC764658), vemurafenib (NSC761431), venetoclax (NSC766270), copanlisib (NSC809693), apelisib (NSC765974), palbociblib (NSC758247), vemurafenib (NSC761431), dabrafenib (NSC764134), ravoxertinib (NSC781343), BMS-387032 (NSC767048), sotorasib (NSC818433), talazoparib (NSC767125) and afursertib (NSC778305), were obtained from the National Cancer Institute (NCI) Developmental Therapeutics Program Chemical Repository. The FDA-approved anticancer drug set is available from the NCI Developmental Therapeutics Program. […] The stock solutions were prepared in dimethyl sulfoxide (DMSO, Sigma-Aldrich, St. Louis, MO, cat. D2650) at 800-fold the tested concentration and stored at -70 degrees C prior to their use. All drugs and investigational agents were tested over a range starting from a high concentration at or near the clinical Cmax and decreasing in half-log increments. If the clinical Cmax for an agent had not been determined, the highest concentration tested was 10 microM.
NCI60 Cell Culture. NCI60 cell lines were obtained from the NCI Developmental Therapeutics Program Tumor Repository. For each lot of cells, the Repository performed Applied Biosystems AmpFLSTR Identifiler testing with PCR amplification to confirm consistency with the published Identifier STR profile for each cell line. Cells were kept in continuous culture for no more than 20 passages. The optimal seeding densities for each of the cell lines at each time point assessed were determined prior to performing the concentration response studies. Briefly, the NCI60 human tumor lines were grown as monolayers in RPMI 1640 medium supplemented with 10% FBS and 2 mmol/L L-glutamine.
An additional 9 lines were from the NCI60 cell line panel including MDA-MB-231 breast carcinoma, MDA-MB-468 breast carcinoma, MCF7 breast carcinoma, Hs578T breast carcinoma, MALME-3M melanoma, SK-MEL-2 melanoma, SK-OV-3 ovarian carcinoma, DU-145 prostate carcinoma, PC-3 prostate carcinoma, all cell lines along with major genetic alterations are listed on Table 2. Pooled donor human umbilical vein endothelial cells (HUVEC, Lonza, cat. CC-2519) and human mesenchymal stem cells (hMSC, Lonza, cat. PT-2501) were purchased from Lonza (Walkersville, MD).
PDMR cell lines were grown in complete medium (DC medium): Dulbecco's modified Eagle's medium (DMEM)/F12 supplemented with 5% fetal bovine serum (FBS), 2 mM L-glutamine, 100 U/mL penicillin and 100 µg/ml streptomycin, 0.4 µg/ml hydrocortisone, 10 ng/ml epidermal growth factor (EGF) recombinant human protein, 24 µg/mL adenine, and 0.1 mg/mL primocin. During culture from frozen stock vials, PDMR cells were cultured in the same medium containing 10 µM Y-27632 (see Table 3). The PDCs were cultured in complete DMEM/F12 media without 10 microM Y-27632 dihydrochloride for at least two passages prior to the screen. The pooled donor HUVEC and hMSC were cultured in endothelial cell growth medium 2 (PromoCell, Heidelberg, Germany, cat. C-22011) and mesenchymal stem cell growth medium 2 (PromoCell, cat. C-28009), respectively. For all experiments, HUVEC and hMSC were used at passages </=5.
[…]
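Further: spheroids exposed to compounds for 7 days before readout.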
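Wherever viability, T/C is given: CTG3D luminescence normalised so that 100% = DMSO vehicle control.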

For `C=CC(=O)N1CCN(c2nc(=O)n(-c3c(C)ccnc3C(C)C)c3nc(-c4c(O)cccc4F)c(F)cc23)C(C)C1` (stereo not given), the viability, T/C (compound 0.0316 µM) was 84.1% and 78.2%, the viability, T/C (compound 0.1 µM) was 88.8% and 74.3% and the viability, T/C (compound 0.316 µM) was 98.2% and 105%. For the same compound, the viability, T/C (compound 1 µM) was 95.9% and 88.2%, the viability, T/C (compound 3.16 µM) was 82.6% and 77.3% and the viability, T/C (compound 10 µM) was 30.3% and 68.4%. For the same compound, the pIC50 (curve of compound) was 5.19 and < 5.00.

With `C=CCn1c(=O)c2cnc(Nc3ccc(N4CCN(C)CC4)cc3)nc2n1-c1cccc(C(C)(C)O)n1` the viability, T/C (compound 0.0316 µM) was 98.5% and 92.5%, the viability, T/C (compound 0.1 µM) was 75.5% and 64.4% and the viability, T/C (compound 0.316 µM) was 70.1% and 55.9%. For the same compound, the viability, T/C (compound 1 µM) was 68.8% and 58.6%, the viability, T/C (compound 3.16 µM) was 68.3% and 69.5% and the viability, T/C (compound 10 µM) was 49.5% and 53.6%. The pIC50 (curve of compound) was < 5.00.

For `CC(=O)c1c(C)c2cnc(Nc3ccc(N4CCNCC4)cn3)nc2n(C2CCCC2)c1=O`, the viability, T/C (compound 0.000949 µM) was 86.5% and 84.4%, the viability, T/C (compound 0.003 µM) was 81.2% and 104% and the viability, T/C (compound 0.00949 µM) was 109% and 90.3%. For the same compound, the viability, T/C (compound 0.03 µM) was 133% and 91.8%, the viability, T/C (compound 0.0949 µM) was 112% and 101% and the viability, T/C (compound 0.3 µM) was 165% and 106%. For the same compound, the pIC50 (curve of compound) was < 6.52.

`CC(C)(C)c1cnc(CSc2cnc(NC(=O)C3CCNCC3)s2)o1` was tested, and the viability, T/C (compound 0.00949 µM) was 133% and 138%, the viability, T/C (compound 0.03 µM) was 147% and 141% and the viability, T/C (compound 0.0949 µM) was 50.3% and 77.6%. The viability, T/C (compound 0.3 µM) was 1.67% and 2.96%, the viability, T/C (compound 0.949 µM) was 1.36% and 1.78% and the viability, T/C (compound 3 µM) was 0.89% and 2.1%. For the same compound, the pIC50 (curve of compound) was 7.02 and 6.84.

With `CC(C)NCC(C(=O)N1CCN(c2ncnc3c2C(C)CC3O)CC1)c1ccc(Cl)cc1` (stereo not given) the viability, T/C (compound 1 µM) was 30.2% [middle of 13 runs], the viability, T/C (compound 3.16 µM) was 23.3% [middle of 13 runs] and the viability, T/C (compound 10 µM) was 14.6% [middle of 13 runs].

`CC(C)n1nc(-c2ccc3oc(N)nc3c2)c2c(N)ncnc21` was tested, and the viability, T/C (compound 0.000316 µM) was 108% and 77.2%, the viability, T/C (compound 0.001 µM) was 81.4% and 72.8% and the viability, T/C (compound 0.00316 µM) was 58.9% and 50.4%. For the same compound, the viability, T/C (compound 0.01 µM) was 57.2% and 53.4%, the viability, T/C (compound 0.0316 µM) was 49.8% and 32.9% and the viability, T/C (compound 0.1 µM) was 26% and 20.3%. The pIC50 (curve of compound) was 7.79 and 8.14.

For `CC1(C)CCC(CN2CCN(c3ccc(C(=O)NS(=O)(=O)c4ccc(NCC5CCOCC5)c([N+](=O)[O-])c4)c(Oc4cnc5[nH]ccc5c4)c3)CC2)=C(c2ccc(Cl)cc2)C1`, the viability, T/C (compound 0.0316 µM) was 124% and 120%, the viability, T/C (compound 0.1 µM) was 111% and 103% and the viability, T/C (compound 0.316 µM) was 145% and 85.5%. For the same compound, the viability, T/C (compound 1 µM) was 198% and 117%, the viability, T/C (compound 3.16 µM) was 221% and 138% and the viability, T/C (compound 10 µM) was 37.6% and 25.7%. The pIC50 (curve of compound) was 5.05 and 5.14.

For `CCCS(=O)(=O)Nc1ccc(F)c(C(=O)c2c[nH]c3ncc(-c4ccc(Cl)cc4)cc23)c1F`, the viability, T/C (compound 0.0316 µM) was 134% and 78.5%, the viability, T/C (compound 0.1 µM) was 120% and 76.5% and the viability, T/C (compound 0.316 µM) was 111% and 63%. For the same compound, the viability, T/C (compound 1 µM) was 84.5% and 45.3%, the viability, T/C (compound 3.16 µM) was 46.7% and 33.6% and the viability, T/C (compound 10 µM) was 50.4% and 29.4%. For the same compound, the pIC50 (curve of compound) was 5.26 and 6.13.

For `CCN1CCN(Cc2ccc(Nc3ncc(F)c(-c4cc(F)c5nc(C)n(C(C)C)c5c4)n3)nc2)CC1`, the pIC50 (compound alone, run of 05/18/2021) was < 6.00.

In the case of `COc1c(OCCCN2CCOCC2)ccc2c3n(c(=NC(=O)c4cnc(N)nc4)nc12)CCN3`, the viability, T/C (compound 0.00316 µM) was 85.1% and 76.3%, the viability, T/C (compound 0.01 µM) was 62.6% and 60.3% and the viability, T/C (compound 0.0316 µM) was 36.9% and 35.4%. The viability, T/C (compound 0.1 µM) was 19.8% and 22.2%, the viability, T/C (compound 0.316 µM) was 13.8% and 16.1% and the viability, T/C (compound 1 µM) was 4.09% and 9.06%. For the same compound, the pIC50 (curve of compound) was 7.75 and 7.79.

`Cc1nc(NC(=O)N2CCCC2C(N)=O)sc1-c1ccnc(C(C)(C)C(F)(F)F)c1` (stereo not given) was tested, and the viability, T/C (compound 0.0316 µM) was 79.1% and 55.6%, the viability, T/C (compound 0.1 µM) was 54.8% and 65.7% and the viability, T/C (compound 0.316 µM) was 36.8% and 46.5%. For the same compound, the viability, T/C (compound 1 µM) was 25.4% and 25%, the viability, T/C (compound 3.16 µM) was 17.9% and 18.6% and the viability, T/C (compound 10 µM) was 10.7% and 14.8%. The pIC50 (curve of compound) was 6.86 and 6.58.

For `Cn1cnc2c(F)c(Nc3ccc(Br)cc3Cl)c(C(=O)NOCCO)cc21`, the viability, T/C (compound 0.00949 µM) was 107% and 165%, the viability, T/C (compound 0.03 µM) was 94.5% and 174% and the viability, T/C (compound 0.0949 µM) was 75% and 136%. For the same compound, the viability, T/C (compound 0.3 µM) was 82.8% and 125%, the viability, T/C (compound 0.949 µM) was 80.4% and 122% and the viability, T/C (compound 3 µM) was 65.8% and 67.1%. The pIC50 (curve of compound) was < 5.52.

With `Cn1ncc(Cl)c1-c1cc(C(=O)NC(CN)Cc2cccc(F)c2)sc1Cl` (stereo not given) the viability, T/C (compound 0.0316 µM) was 105% and 86.6%, the viability, T/C (compound 0.1 µM) was 76.1% and 51.8% and the viability, T/C (compound 0.316 µM) was 52.6% and 32.5%. For the same compound, the viability, T/C (compound 1 µM) was 38.7% and 29.1%, the viability, T/C (compound 3.16 µM) was 16% and 10.7% and the viability, T/C (compound 10 µM) was 1.14% and 1.09%. The pIC50 (curve of compound) was 6.33 and 6.86.

`Cn1nccc1Nc1nccc(-c2ccn(C(CO)c3ccc(Cl)c(F)c3)c(=O)c2)n1` (stereo not given) was tested, and the viability, T/C (compound 0.0316 µM) was 128% and 195%, the viability, T/C (compound 0.1 µM) was 141% and 196% and the viability, T/C (compound 0.316 µM) was 155% and 220%. The viability, T/C (compound 1 µM) was 168% and 256%, the viability, T/C (compound 3.16 µM) was 149% and 198% and the viability, T/C (compound 10 µM) was 85.6% and 134%. The pIC50 (curve of compound) was < 5.00.

In the case of `Cn1ncnc1[C@H]1c2n[nH]c(=O)c3cc(F)cc(c23)N[C@@H]1c1ccc(F)cc1`, the viability, T/C (compound 0.000316 µM) was 81.7% and 97.4%, the viability, T/C (compound 0.001 µM) was 80% and 90.8% and the viability, T/C (compound 0.00316 µM) was 137% and 113%. For the same compound, the viability, T/C (compound 0.01 µM) was 105% and 91.3%, the viability, T/C (compound 0.0316 µM) was 100% and 106% and the viability, T/C (compound 0.1 µM) was 96.4% and 111%. The pIC50 (curve of compound) was < 7.00.
